Laboratory results: patent publication US6878732B2, “NK1 antagonists” (Schering Corporation, priority 2002, dated 2005)
Values joined by “and” are separate entries in the source; they are usually repeats but may differ in a detail not shown here. Equal entries are not always repeated.

target: NK1 receptor (Homo sapiens, UniProt P25103); assay: NK1 receptor binding: inhibition of Substance P binding, Ki by the Chang-Prusoff equation; conditions: inhibition constant from the concentration giving 50% inhibition of binding; procedure of Duffy et al.
Sequence (P25103 whole entry, species assumed): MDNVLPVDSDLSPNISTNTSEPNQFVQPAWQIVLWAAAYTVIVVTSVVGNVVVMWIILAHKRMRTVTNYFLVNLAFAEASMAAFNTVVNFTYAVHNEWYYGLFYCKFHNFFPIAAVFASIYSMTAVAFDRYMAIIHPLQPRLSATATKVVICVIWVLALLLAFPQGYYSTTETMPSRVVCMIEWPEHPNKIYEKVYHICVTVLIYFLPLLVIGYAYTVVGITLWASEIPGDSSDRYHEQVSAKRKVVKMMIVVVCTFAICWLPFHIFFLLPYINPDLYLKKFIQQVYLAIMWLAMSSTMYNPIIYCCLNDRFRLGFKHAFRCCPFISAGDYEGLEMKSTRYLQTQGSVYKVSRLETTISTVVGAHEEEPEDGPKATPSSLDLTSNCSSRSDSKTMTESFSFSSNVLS
Description: The percent of MSB is defined by the following equation, wherein “dpm” represents “disintegrations per minute”: [formula]

SMILES	Ki
C[C@@H](OC[C@]1(c2ccccc2)C[C@]2(C1)N=CNC2=O)c1cc(C(F)(F)F)cc(C(F)(F)F)c1 [Example 46]	0.13 to 1.78 nM
CNC(=O)[C@]1(N)C[C@@](CO[C@H](C)c2cc(C(F)(F)F)cc(C(F)(F)F)c2)(c2ccccc2)C1 [Example 27]	0.13 to 1.78 nM
C[C@@H](OC[C@]1(c2ccccc2)C[C@](N)(C(N)=O)C1)c1cc(C(F)(F)F)cc(C(F)(F)F)c1 [Example 28]	0.13 to 1.78 nM

The remaining lines, values ahead:

Ki	SMILES
0.13 to 1.78 nM	C[C@@H](OC[C@]1(c2ccccc2)C[C@@]2(CNC(=O)N2)C1)c1cc(C(F)(F)F)cc(C(F)(F)F)c1 [Example 12b]
0.13 to 1.78 nM and 0.2 nM	C[C@@H](OC[C@]1(c2ccccc2)C[C@]2(C1)NCNC2=O)c1cc(C(F)(F)F)cc(C(F)(F)F)c1 [Example 49]
0.13 to 1.78 nM	C[C@@H](OC[C@]1(c2ccccc2)C[C@@]2(C1)NC(=O)NC2=O)c1cc(C(F)(F)F)cc(C(F)(F)F)c1 [Example 11b]
0.13 to 1.78 nM	C[C@@H](OC[C@]1(c2ccccc2)C[C@]2(C1)NC(=O)NC2=O)c1cc(C(F)(F)F)cc(C(F)(F)F)c1 [Example 11a]
